30 compounds from US20200216439A1, “HETERO-1,5,6,7-TETRAHYDRO-4H-INDOL-4-ONES” (BAYER PHARMA AKTIENGESELLSCHAFT, priority 2015, published 2020) can be followed below.

The assay deals with T1, catalytic domain of human Bub1 (amino acids 704-1085) (Homo sapiens, UniProt O43683).
T1 construct: catalytic domain of human Bub1 (amino acids 704-1085); His6 (N); made in house; host or cells: Hi5 insect cells
T1 sequence (O43683 704-1085): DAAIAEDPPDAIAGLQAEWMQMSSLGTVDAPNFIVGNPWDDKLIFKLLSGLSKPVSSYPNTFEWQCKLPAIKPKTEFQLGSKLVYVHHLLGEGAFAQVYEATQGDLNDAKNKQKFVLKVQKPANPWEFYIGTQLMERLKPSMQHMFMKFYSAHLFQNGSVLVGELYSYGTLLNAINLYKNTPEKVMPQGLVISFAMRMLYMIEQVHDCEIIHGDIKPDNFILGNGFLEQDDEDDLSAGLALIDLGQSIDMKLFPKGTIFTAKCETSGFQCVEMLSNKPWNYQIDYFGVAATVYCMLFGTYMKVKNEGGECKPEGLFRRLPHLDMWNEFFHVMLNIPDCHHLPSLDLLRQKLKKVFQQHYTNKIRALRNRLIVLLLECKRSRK
The assay is described as follows: Bub1 kinase assay (TR-FRET). It counts as biochemical. Conditions: TR-FRET; ATP 10 μM, peptide substrate 1 μM; 60 min at 22° C.; average or median if tested more than once; read-out: Inhibition of Bub1 kinase IC50. The method, boiled down: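 Eleven concentrations (0.1 nM–20 μM, duplicate) fitted by 4-parameter logistic for IC50. Read-out: EDTA-stopped TR-FRET (665/620 nm) detecting anti-phosphoserine binding to biotin-peptide (1 μM). Reaction used 10 μM ATP, 60 min at 22 °C, after 15 min compound preincubation with His-tagged human Bub1 704-1085.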
(In TR-FRET formats the signal depends on donor and acceptor labels being close together.)
On to `C[S+]([O-])CCNC(=O)N1CC(=O)c2c([nH]c(-c3ccncc3)c2Nc2ccccc2)C1` (racemic) [Example 88, N-{2-[(RS)-Methylsulfinyl]ethyl}4-oxo-3-(phenylamino)-2-(pyridin-4-yl)-1,4,5,7-tetrahydro-6H-pyrrolo[2,3-c]pyridine-6-carboxamide], for which the IC50 is 21 nM. To `CC(C)(C)OC(=O)N1CC(=O)c2c([nH]c(-c3ccnc(NC(=O)c4cncs4)c3)c2Nc2ccccc2)C1` [Example 122, tert-Butyl 4-oxo-3-(phenylamino)-2-{2-[(1,3-thiazol-5-ylcarbonyl)amino]pyridin-4-yl}-1,4,5,7-tetrahydro-6H-pyrrolo[2,3-c]pyridine-6-carboxylate] belongs 6 nM. To `O=C1CN(S(=O)(=O)c2cnc[nH]2)Cc2[nH]c(-c3ccncc3)c(Nc3ccccc3)c21` [Example 72, 6-(1H-Imidazol-5-ylsulfonyl)-3-(phenylamino)-2-(pyridin-4-yl)-1,5,6,7-tetrahydro-4H-pyrrolo[2,3-c]pyridin-4-one] belongs 7 nM; to `CC(C)OC(=O)N1CC(=O)c2c([nH]c(-c3ccnc(NC(=O)c4cncs4)c3)c2Nc2ccccc2)C1` [Example 156, Isopropyl 3-anilino-4-oxo-2-{2-[(1,3-thiazol-5-ylcarbonyl)amino]pyridin-4-yl}-1,4,5,7-tetrahydro-6H-pyrrolo[2,3-c]pyridine-6-carboxylate], 12 nM.

On to `COc1cnccc1-c1[nH]c2c(c1Nc1ccccc1)C(=O)CN(C(=O)OC(C)(C)C)C2` [Example 102, tert-Butyl 2-(3-methoxypyridin-4-yl)-4-oxo-3-(phenylamino)-1,4,5,7-tetrahydro-6H-pyrrolo[2,3-c]pyridine-6-carboxylate], for which the IC50 was found to be 17 nM. Take `CC(=O)Nc1cc(-c2[nH]c3c(c2Nc2ccccc2)C(=O)CN(C(=O)N2C[C@@H](C)O[C@@H](C)C2)C3)ccn1` [Example 255, N-4-[6-[(2R,6S)-2,6-Dimethylmorpholin-4-yl]carbonyl-4-oxo-3-(phenylamino)-4,5,6,7-tetrahydro-1H-pyrrolo[2,3-c]pyridin-2-yl]pyridin-2-ylacetamide]: the IC50 amounted to 375 nM.

For the compound `CC(C)(C)CC(=O)N1CC(=O)c2c([nH]c(-c3ccncc3)c2Nc2ccccc2)C1` [Example 58, 6-(3,3-Dimethylbutanoyl)-3-(phenylamino)-2-(pyridin-4-yl)-1,5,6,7-tetrahydro-4H-pyrrolo[2,3-c]pyridin-4-one], the IC50 came to 8 nM.

With `COCCOCCNC(=O)N1CC(=O)c2c([nH]c(-c3ccncc3)c2Nc2ccccc2)C1` [Example 90, N-[2-(2-Methoxyethoxy)ethyl]-4-oxo-3-(phenylamino)-2-(pyridin-4-yl)-1,4,5,7-tetrahydro-6H-pyrrolo[2,3-c]pyridine-6-carboxamide], the IC50 came out at 21 nM. To `CC(=O)Nc1cc(-c2[nH]c3c(c2Nc2ccc(C)cc2)C(=O)CN(C(=O)OC(C)C)C3)ccn1` [Example 323, Propan-2-yl 2-[2-(acetylamino)pyridin-4-yl]-3-[(4-methylphenyl)amino]-4-oxo-1,4,5,7-tetrahydro-6H-pyrrolo[2,3-c]pyridine-6-carboxylate] belongs 229 nM; to `CC(=O)Nc1cc(-c2[nH]c3c(c2Nc2ccccc2)C(=O)COC3)ccn1` [Example 34, N-{4-[4-Oxo-3-(phenylamino)-1,4,5,7-tetrahydropyrano[3,4-b]pyrrol-2-yl]pyridin-2-yl}acetamide], 60 nM.

Turning to `O=C1CN(C(=O)c2ccncc2)Cc2[nH]c(-c3ccncc3)c(Nc3ccccc3)c21` [Example 63, 3-(phenylamino)-2-(pyridin-4-yl)-6-(pyridin-4-ylcarbonyl)-1,5,6,7-tetrahydro-4H-pyrrolo[2,3-c]pyridin-4-one], the IC50 turned out to be 9 nM.

As to `CC(C)(C)OC(=O)N1CC(=O)c2c([nH]c(-c3ccnc(NC(=O)[C@@H]4C[C@@H]4F)c3)c2Nc2ccccc2)C1` (relative stereo) [Example 120, tert-Butyl 2-[2-({[rel-(1S,2S)-2-fluorocyclopropyl]carbonyl}amino)pyridin-4-yl]-4-oxo-3-(phenylamino)-1,4,5,7-tetrahydro-6H-pyrrolo[2,3-c]pyridine-6-carboxylate], the IC50 was found to be 9 nM. To `CN1CCN(C(=O)N2CC(=O)c3c([nH]c(-c4ccnc(NC(=O)[C@@H]5C[C@@H]5F)c4)c3Nc3ccccc3)C2)CC1` [Example 209, (1S,2S)-2-Fluoro-N-(4-6-[(4-methylpiperazin-1-yl)carbonyl]4-oxo-3-(phenylamino)-4,5,6,7-tetrahydro-1H-pyrrolo[2,3-c]pyridin-2-ylpyridin-2-yl)cyclopropanecarboxamide] belongs 7 nM; to `Cc1cnccc1-c1[nH]c2c(c1Nc1ccccc1)C(=O)CSC2` [Example 37, 2-(3-Methylpyridin-4-yl)-3-(phenylamino)-1,7-dihydrothiopyrano[3,4-b]pyrrol-4(5H)-one], 482 nM. To `CN(C)C(=O)N1CC(=O)c2c([nH]c(-c3ccncc3)c2Nc2ccccc2)C1` [Example 82] belongs 4 nM. To `CC(C)(C)COC(=O)N1CC(=O)c2c([nH]c(-c3ccncc3)c2Nc2ccccc2)C1` [Example 78, 2,2-Dimethylpropyl 4-oxo-3-(phenylamino)-2-(pyridin-4-yl)-1,4,5,7-tetrahydro-6H-pyrrolo[2,3-c]pyridine-6-carboxylate] belongs 73 nM. In the case of `CC(C)(C)OC(=O)N1CC(=O)c2c([nH]c(-c3ccnc(NC(=O)[C@H]4C[C@H]4F)c3)c2Nc2ccccc2)C1` [Example 128, tert-Butyl 3-anilino-2-[2-({[(1R,2R)-2-fluorocyclopropyl]carbonyl}amino)pyridin-4-yl]-4-oxo-1,4,5,7-tetrahydro-6H-pyrrolo[2,3-c]pyridine-6-carboxylate], the IC50 is 8 nM. In the case of `CC(=O)Nc1cc(-c2[nH]c3c(c2Nc2ccccc2)C(=O)CN(S(=O)(=O)CCO)C3)ccn1` [Example 188, N-(4-{3-Anilino-6-[(2-hydroxyethyl)sulfonyl]-4-oxo-4,5,6,7-tetrahydro-1H-pyrrolo[2,3-c]pyridin-2-yl}pyridin-2-yl)acetamide], the IC50 came to 4 nM. To `Cc1cc(F)ccc1C(=O)Nc1cc(-c2[nH]c3c(c2Nc2ccccc2)C(=O)CNC3)ccn1` [Example 264, 4-Fluoro-2-methyl-N-4-[4-oxo-3-(phenylamino)-4,5,6,7-tetrahydro-1H-pyrrolo[2,3-c]pyridin-2-yl]pyridin-2-ylbenzamide] belongs 81 nM; to `O=C1CNCc2[nH]c(-c3ccnc(NC(=O)[C@@H]4C[C@@H]4F)c3)c(Nc3ccccc3)c21` [Example 197, (1S,2S)—N-[4-(3-anilino-4-oxo-4,5,6,7-tetrahydro-1H-pyrrolo[2,3-c]pyridin-2-yl)pyridin-2-yl]-2-fluorocyclopropanecarboxamide], 40 nM; to `CN(C)CCOc1cnccc1-c1[nH]c2c(c1Nc1ccccc1)C(=O)CNC2` [Example 277, 2-3-[2-(Dimethylamino)ethoxy]pyridin-4-yl-3-(phenylamino)-1,5,6,7-tetrahydro-4H-pyrrolo[2,3-c]pyridin-4-one], 102 nM.

For `CC(C)(C)C(=O)N1CC(=O)c2c([nH]c(-c3ccnc(NC(=O)[C@@H]4C[C@@H]4F)c3)c2Nc2ccccc2)C1` [Example 213], the IC50 was found to be 2 nM.

On to `CC(C)(F)C(=O)Nc1cc(-c2[nH]c3c(c2Nc2ccccc2)C(=O)CNC3)ccn1` [Example 130, N-[4-(3-Anilino-4-oxo-4,5,6,7-tetrahydro-1H-pyrrolo[2,3-c]pyridin-2-yl)pyridin-2-yl]-2-fluoro-2-methylpropanamide], for which the IC50 is 662 nM. Take `CC(=O)Nc1cc(-c2[nH]c3c(c2Nc2ccccc2)C(=O)CN(C(=O)N2CCN(C)CC2)C3)ccn1` [Example 127, N-(4-{3-Anilino-6-[(4-methylpiperazin-1-yl)carbonyl]-4-oxo-4,5,6,7-tetrahydro-1H-pyrrolo[2,3-c]pyridin-2-yl}pyridin-2-yl)acetamide]: the IC50 is 29 nM. To `O=C1CN(C(=O)CCO)Cc2[nH]c(-c3ccncc3)c(Nc3ccccc3)c21` [Example 56, 6-(3-Hydroxypropanoyl)-3-(phenylamino)-2-(pyridin-4-yl)-1,5,6,7-tetrahydro-4H-pyrrolo[2,3-c]pyridin-4-one] belongs 5 nM; to `COc1cnccc1-c1[nH]c2c(c1Nc1ccccc1)C(=O)COC2` [Example 43, 2-(3-Methoxypyridin-4-yl)-3-(phenylamino)-1,7-dihydropyrano[3,4-b]pyrrol-4(5H)-one], 84 nM; to `CC(=O)Nc1cc(-c2[nH]c3c(c2Nc2ccc(F)cc2)C(=O)CN(C(=O)OC(C)C)C3)ccn1` [Example 316, Propan-2-yl 2-[2-(acetylamino)pyridin-4-yl]-3-[(4-fluorophenyl)amino]-4-oxo-1,4,5,7-tetrahydro-6H-pyrrolo[2,3-c]pyridine-6-carboxylate], 25 nM.

For `CC(=O)N1CC(=O)c2c([nH]c(-c3ccncc3OCC(F)F)c2Nc2ccccc2)C1` [Example 228, 6-Acetyl-3-anilino-2-[3-(2,2-difluoroethoxy)pyridin-4-yl]-1,5,6,7-tetrahydro-4H-pyrrolo[2,3-c]pyridin-4-one], the IC50 was found to be 33 nM. As for `CS(=O)(=O)N1CC(=O)c2c([nH]c(-c3ccncc3OCC3CC3)c2Nc2ccccc2)C1` [Example 235, 2-[3-(Cyclopropylmethoxy)pyridin-4-yl]-6-(methylsulfonyl)-3-(phenylamino)-1,5,6,7-tetrahydro-4H-pyrrolo[2,3-c]pyridin-4-one], the IC50 stood at 6 nM.

Regarding `O=C(Nc1cc(-c2[nH]c3c(c2Nc2ccccc2)C(=O)CNC3)ccn1)c1cncs1` [Example 135], the IC50 was 51 nM.

A word on the IC50: it is the concentration needed to halve the response being measured.
